Measurements reported in PMC4536076, “Chemical Library Screening and Structure-Function Relationship Studies Identify Bisacodyl as a Potent and Selective Cytotoxic Agent Towards Quiescent Human Glioblastoma Tumor Stem-Like Cells” (PLoS ONE, 2015).
Counter-ions that a name gives are not always drawn. Like-named read-outs stand apart in the source and are kept apart here.

What was measured:
proliferating TG1 GSCs [1] = test: ATP-Glo dose-response, proliferating TG1 GSCs; assay type: cell-based, human
Description: (§1) The EC50 value was determined for each compound by fitting the data points according to the following equation: y=Smax+Smin*(x*1/EC50)^n/1+(x*1/EC50)^n where y represents the expected response, x is the chemical compound concentration, S max and S min are the maximum and minimum responses recorded, respectively and n is the Hill coefficient. Curve fitting was performed using Microsoft Excel Solver component.
(§2) Proliferating or quiescent TG1 cells were seeded in 50 μL of their respective media (30 000 and 40 000 viable cells/well, respectively) into 96-well opaque bottom plates (Greiner, Courtaboeuf, France). Compound treatment was performed by adding 50 μL of compound solutions (in the presence of 2% DMSO in culture medium). […] All compounds were tested in triplicate in each experiment. Independent experiments were performed at least twice for almost all of the compounds.

quiescent TG1 GSCs [2] = test: ATP-Glo dose-response, quiescent TG1 GSCs; assay type: cell-based, human
Description: as §1, §2

proliferating TG16 GSCs = test: ATP-Glo dose-response, proliferating TG16 GSCs; assay type: cell-based, human; conditions: Homo sapiens; ATP Glo readout, 24 h treatment; read-out: P TG16 GSCs EC50
Description: as §1
(§3) Similar dose response curves were performed using GSCs isolated from GBM of two other patients (TG16 and OB1 GSCs) grown under proliferating and quiescent conditions.

quiescent TG16 GSCs = test: ATP-Glo dose-response, quiescent TG16 GSCs; assay type: cell-based, human; conditions: Homo sapiens; ATP Glo readout, 24 h treatment; read-out: Q TG16 GSCs EC50
Description: as §1, §3

proliferating OB1 GSCs = test: ATP-Glo dose-response, proliferating OB1 GSCs; assay type: cell-based; conditions: Homo sapiens; ATP Glo readout, 24 h treatment; read-out: P OB1 GSCs EC50
Description: as §1, §3

quiescent OB1 GSCs = test: ATP-Glo dose-response, quiescent OB1 GSCs; assay type: cell-based, human; conditions: Homo sapiens; ATP Glo readout, 24 h treatment; read-out: Q OB1 GSCs EC50
Description: as §1, §3

[3] = tested on: primary astrocytes (HA cells); test: ATP-Glo dose-response, primary astrocytes; assay type: cell-based, human; conditions: Homo sapiens, Astrocyte; for EC50: ATP Glo readout, 24 h treatment
[4] = tested on: fetal neural stem cells (f-NSC); test: ATP-Glo dose-response, fetal neural stem cells; assay type: cell-based; conditions: Homo sapiens, Neural stem cell; ATP Glo readout, 24 h treatment
HEK 293 cells = test: ATP-Glo dose-response, HEK 293 cells; assay type: cell-based, human; conditions: Homo sapiens, HEK293; ATP Glo readout, 24 h treatment
Description: as §1, with “component. […]” for “component.”

quiescent TG1 GSCs [5] = conditions: primary screen, 50 μM, 24 h
Outline: (§4)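 Cells seeded at 30 000 (proliferating) or 40 000 (quiescent) viable cells/well and treated with compound at 50 μM final, 1% DMSO, single test; hits retested in duplicate at 50 and 5 μM. ATP measured by luminescence, as percent of the mean signal of DMSO control wells.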

quiescent TG1 cells = test: Cell viability, trypan blue staining, quiescent TG1 cells; assay type: cell-based, human; conditions: quiescent TG1 GSCs, 10 μM, 24 hours
Description: Cell mortality was evaluated by trypan blue staining (0.1% (v/v)).

Solubility measurements = assay type: physicochemical; conditions: data not shown
proliferating TG1 GSCs [6] = conditions: primary screen, 50 μM, 24 h
Outline: as §4

Astrocytes = tested on: Astrocytes; parameters: method as in PMID 23039130; conditions: literature, ref [104]; cited from earlier work
[7] = tested on: human colon cancer cell line HT29; parameters: method as in PMID 1888153; conditions: ref [58], read-out: EC50, decrease of proliferation; cited from earlier work
[8] = Homo sapiens, 24 h, ATP Glo readout, 24 h treatment, n = 3, read-out: P TG1 GSCs EC50
[9] = Homo sapiens, 24 h, ATP Glo readout, 24 h treatment, n = 3, read-out: Q TG1 GSCs EC50

Row | SMILES | EC50 (proliferating TG1 GSCs [1]; [8]) [µM] | EC50 (quiescent TG1 GSCs [2]; [9]) [µM] | EC50 (proliferating TG16 GSCs) [µM] | EC50 (quiescent TG16 GSCs) [µM] | EC50 (proliferating OB1 GSCs) [µM] | EC50 (quiescent OB1 GSCs) [µM] | EC50 [3] [µM] | EC50 [4] [µM] | EC50 (HEK 293 cells) [µM] | Activity on quiescent TG1 GSCs (hit compounds reducing ATP levels) (quiescent TG1 GSCs [5]) | Activity on proliferating TG1 GSCs (hit compounds reducing ATP levels) (proliferating TG1 GSCs [6]) | other results
1 | CC(=O)Oc1ccc(C(c2ccc(OC(C)=O)cc2)c2ccccn2)cc1 [Compound 1, 4,4'-diacetoxydiphenyl-2-pyridyl-methane] | > 100 | ~1 | > 100 | 1.3 ± 0.1 | > 100 | 0.5 ± 0.1 | 0.6 ± 0.3 | > 100 | > 100 | yes | – | EC50 (quiescent TG1 GSCs [2]; ATP Glo readout, 24 h treatment, n = 3, listed as Bisacodyl, read-out: Q TG1 GSCs EC50): 1.07 ± 0.04 µM; Emax ([3]; HA cells, not due to cell death, read-out: maximum effect: reduction of ATP levels): 30%; cell viability (trypan blue and 7-AAD staining) (quiescent TG1 cells): resulted from cell death
2 | c1ccc(C(c2ccccc2)c2ccccn2)cc1 [Compound 6, Diphenyl-2-pyridylmethane] | – | – | – | – | – | – | – | – | – | – | – | EC50 (proliferating TG1 GSCs [1]; Homo sapiens, 24 h, SAR study, ATP-Glo cell survival assay, 24 h, triplicate, read-out: Proliferating TG1 GSCs EC50): > 100 µM; EC50 (quiescent TG1 GSCs [2]; Homo sapiens, 24 h, SAR study, ATP-Glo cell survival assay, 24 h, triplicate, read-out: Quiescent TG1 GSCs EC50): 84.8 ± 4.1 µM; solubility (Solubility measurements): not due to reduced solubility
3 | Cc1c2ccncc2c(C)c2c1[nH]c1ccccc12 [Ellipticine] | 13 ± 1 | 19 ± 5 | 13 ± 1 | 56 ± 10 | 8 ± 1 | 30 ± 9 | 5 ± 1 | 7 ± 2 | 13 ± 2 | yes | yes | –
4 | C=C(CC)C(=O)c1ccc(OCC(=O)O)c(Cl)c1Cl [Ethacrynic acid] | 81 ± 11 | 41 ± 11 | > 100 | 12 ± 2 | 60 ± 20 | 24 ± 3 | > 100 | 21 ± 11 | > 100 | yes | – | –
5 | CCOC(=O)C1=C(C)NC(C)=C(C(=O)OC)C1c1cccc(Cl)c1Cl (stereo not shown) [Felodipine] | 38 ± 1 | 30 ± 3 | 39 ± 4 | 33 ± 3 | 43 ± 5 | 41 ± 6 | 36 ± 6 | 59 ± 12 | 55 ± 2 | yes | yes | –
6 | CC(NCCC(c1ccccc1)c1ccccc1)c1ccccc1 (stereo not shown) [Fendiline hydrochloride] | 22 ± 1 | 32 ± 1 | 42 ± 1 | 45 ± 16 | 40 ± 13 | 48 ± 9 | 42 ± 8 | 11 ± 1 | 34 ± 9 | yes | – | –
7 | CC[C@H](C)[C@H]1O[C@]2(CC[C@@H]1C)C[C@@H]1C[C@@H](C/C=C(\C)[C@@H](O[C@H]3C[C@H](OC)[C@@H](O[C@H]4C[C@H](OC)[C@@H](O)[C@H](C)O4)[C@H](C)O3)[C@@H](C)/C=C/C=C3\CO[C@@H]4[C@H](O)C(C)=C[C@@H](C(=O)O1)[C@]34O)O2 [Ivermectin] | – | – | 1.5 ± 0.2 | 6 ± 2 | 3 ± 1 | 7 ± 2 | 3 ± 1 | 4 ± 1 | 13 ± 1 | yes | yes | EC50 (proliferating TG1 GSCs [1]; Homo sapiens, ATP Glo readout, 24 h treatment, n = 3, read-out: P TG1 GSCs EC50): 3 ± 1 µM; EC50 (quiescent TG1 GSCs [2]; Homo sapiens, ATP Glo readout, 24 h treatment, n = 3, read-out: Q TG1 GSCs EC50): 4 ± 1 µM
8 | O=c1cc(-c2ccc(O)c(O)c2)oc2cc(O)cc(O)c12 [Luteolin, 3',4',5,7-tetrahydroxy-flavone] | > 100 | 20 ± 2 | > 100 | 34 ± 4 | > 100 | 18 ± 4 | > 100 | 70 ± 36 | > 100 | yes | – | –
9 | C#C[C@]1(O)CC[C@H]2[C@@H]3CCC4=CCCC[C@@H]4[C@H]3CC[C@@]21C [Lynestrenol] | 36 ± 2 | 43 ± 8 | 32 ± 2 | 28 ± 6 | 26 ± 5 | 56 ± 10 | 20 ± 1 | 23 ± 5 | 57 ± 8 | – | yes | –
10 | C=C1C(=O)O[C@H]2[C@H]1CC/C(C)=C/CC[C@@]1(C)O[C@@H]21 [Parthenolide] | 15 ± 2 | 48 ± 6 | 10 ± 2 | – | 18 ± 4 | 35 ± 11 | 59 ± 4 | 8.4 ± 0.2 | 13 ± 5 | yes | yes | EC50 (Astrocytes): 186 ± 10 µM
11 | C1CCC(C(CC2CCCCN2)C2CCCCC2)CC1 (stereo not shown) [Perhexilin maleate] | 10 ± 1 | 14 ± 3 | 11 ± 1 | 21 ± 4 | 12 ± 1 | 22 ± 4 | 12 ± 2 | 3 ± 1 | 12 ± 1 | yes | yes | EC50 [7]: ~10 µM
12 | CC(Cc1ccccc1)NCCC(c1ccccc1)c1ccccc1 (stereo not shown) [Prenylamine lactate] | 22 ± 3 | 27 ± 3 | 32 ± 2 | 42 ± 8 | 30 ± 7 | 49 ± 4 | 30 ± 2 | 9 ± 2 | 25 ± 6 | yes | yes | –
13 | CC(=O)[C@H]1CC[C@H]2[C@@H]3CCC4=CC(=O)CC[C@]4(C)[C@H]3CC[C@]12C [Progesterone] | > 100 | 25 ± 11 | 75 ± 6 | 25 ± 9 | 89 ± 29 | 23 ± 11 | > 100 | > 100 | 36 ± 10 | yes | – | –
14 | CCCCCCCCNC(C)C(O)c1ccc(SC(C)C)cc1 (stereo not shown) [Suloctidil] | 11 ± 1 | 13 ± 1 | 13.5 ± 0.1 | 14 ± 6 | 15 ± 2 | 20 ± 4 | 11 ± 1 | 5 ± 1 | 10 ± 1 | yes | yes | –
15 | CC(C)(C)c1ccc(C(O)CCCN2CCC(C(O)(c3ccccc3)c3ccccc3)CC2)cc1 (stereo not shown) [Terfenadine] | ~10 | 17 ± 1 | 9 ± 1 | 24 ± 6 | 10 ± 2 | 22 ± 4 | 9 ± 2 | 4 ± 1 | 8 ± 1 | yes | yes | EC50 (proliferating TG1 GSCs [1]; ATP Glo readout, 24 h treatment, n = 3, read-out: P TG1 GSCs EC50): 8 ± 1 µM
16 | OCCN1CCN(CC/C=C2/c3ccccc3Sc3ccc(Cl)cc32)CC1 [Zuclopenthixol hydrochloride] | 20 ± 3 | 52 ± 3 | 29 ± 5 | 48 ± 18 | 27 ± 9 | > 100 | 12 ± 1 | 13 ± 1 | 29 ± 1 | – | yes | –
